Experimental findings from patent US20200223826A1, “Glucose-6-Phosphate Dehydrogenase (G6PD)-Modulating Agents And Methods Of Treating G6PD Deficiency” (The Board of Trustees of the Leland Stanford Junior …, priority 2017, published 2020) are described below.

The target in assay [1] is T1, WT G6PD (Homo sapiens, UniProt P11413).
T1 construct: His (pET-28a) (N, cleaved yes); made in house; host or cells: E. coli C43 (DE3)
The assay is described as follows: WT G6PD enzyme activity, recombinant enzyme. The format is biochemical. How it is done: Enzyme activity was measured by monitoring NADPH production, which was coupled with diaphorase converting resazurin to fluorescent resorufin (excitation at 565 nm and emission at 590 nm); fluorescent signal was thus proportional to G6PD activity. Assays were performed at 25° C. and run for 5 minutes in buffer containing 50 mM Tris (pH 7.4), 0.5 mM EDTA, 3.3 mM MgCl2, 1 U/ml diaphorase, 0.1 mM resazurin. 10 ng of recombinant enzymes or 10 μg of cell lysates was used for the assay with 10 μM NADP^+ (Sigma) as cofactor and 100 μM G6P (Sigma) as substrate. Steady-state kinetic parameters were obtained by varying concentrations of NADP^+ (0-10 μM) with a constant concentration of G6P (100 μM) and similarly for G6P (0-100 μM) with a constant concentration of NADP^+ (10 μM) with 10 ng of recombinant enzymes. Data analysis was performed using GraphPad Prism software v.6 (GraphPad Software, La Jolla, Calif. USA). Kinetic parameters were obtained by fitting the data to the Michaelis-Menten equation.

In assay [2] the target is T2, A- (V68M, N126D) G6PD (Homo sapiens, UniProt P11413, N126D/V68M).
T2 construct: His (pET-28a) (N, cleaved yes); made in house; host or cells: E. coli C43 (DE3)
The assay is described as follows: Native gel electrophoresis, dimerization of variant. How it is done:
(§1) 200 ng of recombinant enzymes were incubated with the compound (varying in assays) for 10 minutes at room temperature. To prevent streaking and artifacts in native PAGE gel, the samples in a native state (no boiling of sample and no reducing agent in sample buffer) were electrophoresed by […]. Cross-linking assay was initiated by incubating 500 ng of recombinant enzymes in PBS with 0.1% of glutaraldehyde and different concentrations of NADP^+ (0, 10, 100, 1000 μM) or MgCl2 (0, 1, 10, 100 mM). The mixture was incubated for 10 minutes at room temperature, which was followed by the addition of 100 mM Tris (pH 8.0) at a final concentration to terminate the reaction. The samples were electrophoresed as described above.

Assay [3] concerns the target T3, Kaiping (R463H) G6PD (Homo sapiens, UniProt P11413, R463H).
T3 construct: His (pET-28a) (N, cleaved yes); made in house; host or cells: E. coli C43 (DE3)
Described as above. How it is done: as §1

Assay [4] addresses T4, Mediterranean (S188F) G6PD (Homo sapiens, UniProt P11413, S188F).
T4 construct: His (pET-28a) (N, cleaved yes); made in house; host or cells: E. coli C43 (DE3)
The assay is described as above. How it is done:
as §1

The target of assay [5] is T5, G6PD in lymphocyte lysates carrying the Canton variant (Homo sapiens, UniProt P11413, R459L).
T5 construct: host or cells: lymphocytes from a G6PD-deficient subject
In words: G6PD activity in lymphocyte lysates. The format is cell-based. The settings on record: in the presence of AG1. How it is done:
Lymphocytes derived from a normal subject (HG 00866) and a G6PD-deficient subject carrying Canton variant in G6PD (HG 02367) were purchased from Coriell Institute and cultured in RPMI 1640 supplemented with 15% fetal bovine serum (FBS), 100 U/ml penicillin, and 100 μg/ml streptomycin. An SH-SY5Y neuroblastoma cell line was cultured in Dulbecco's Modification of Eagle's Medium/Ham's F-12 50/50 Mix supplemented with 10% FBS, 100 U/ml penicillin, and 100 μg/ml streptomycin. A G6PD-deficient subject-derived fibroblast cell line carrying Mediterranean variant and normal fibroblast cell line as control were purchased from Coriell Institute (GM 01152) and ThermoFisher Scientific (C0135C), respectively, and cultured in minimum essential medium supplemented with 15% FBS, 100 U/ml penicillin, and 100 μg/ml streptomycin. All the cell lines were maintained at 37° C. in a humidified incubator with an atmosphere of 5% of CO2 and 95% air.
Enzyme activity was measured by monitoring NADPH production, which was coupled with diaphorase converting resazurin to fluorescent resorufin (excitation at 565 nm and emission at 590 nm); fluorescent signal was thus proportional to G6PD activity. Assays were performed at 25° C. and run for 5 minutes in buffer containing 50 mM Tris (pH 7.4), 0.5 mM EDTA, 3.3 mM MgCl2, 1 U/ml diaphorase, 0.1 mM resazurin. […]

The test system of assay [6] is human erythrocytes. The assay is described as follows: ROS levels in erythrocytes under oxidative stressors. The format is cell-based. The settings on record: drug-induced oxidative stress. How it is done: De-identified blood samples were obtained from the Stanford Blood Center. Erythrocytes were collected by filtering the samples through a cellulose slurry to remove platelets and leukocytes and then washed with saline. G6PD activity was measured (Beutler E. Red cell metabolism: A manual of biochemical methods (3rd edition). Grune & Stratton (1984)). […] A 5% erythrocyte suspension was pre-incubated with 1-5 μM AG1 at 4° C. overnight, which was followed by treatment with (or without) either 1 mM chloroquine (CQ) or 1 mM diamide for 3-4 hours at 37° C. (for hemolysis assay with chloroquine, the mixture was incubated under light). Then centrifugation at 1,000 rpm for 5 minutes was followed. Hemoglobin release in the supernatant was monitored by measuring absorbance at 540 nm. […] After wash, the samples were lysed with 0.1% Triton X-100 (final concentration), and the florescence was analyzed with excitation/emission at 485/525 nm. GSH measurement was determined using a Cayman glutathione assay kit (Cayman Chemicals, 703002). […] The absorbance was read at 412 nm. For storage assay, a 5% erythrocyte suspension was stored at 4° C. with and without 1 μM AG1, and hemolysis and G6PD activity were monitored every week for 28 days to examine whether AG1 improves preservation of erythrocytes over time. Protein leakage was also examined by measuring the absorbance of the supernatant of samples at 280 nm. […]

T1 sequence (P11413 whole entry): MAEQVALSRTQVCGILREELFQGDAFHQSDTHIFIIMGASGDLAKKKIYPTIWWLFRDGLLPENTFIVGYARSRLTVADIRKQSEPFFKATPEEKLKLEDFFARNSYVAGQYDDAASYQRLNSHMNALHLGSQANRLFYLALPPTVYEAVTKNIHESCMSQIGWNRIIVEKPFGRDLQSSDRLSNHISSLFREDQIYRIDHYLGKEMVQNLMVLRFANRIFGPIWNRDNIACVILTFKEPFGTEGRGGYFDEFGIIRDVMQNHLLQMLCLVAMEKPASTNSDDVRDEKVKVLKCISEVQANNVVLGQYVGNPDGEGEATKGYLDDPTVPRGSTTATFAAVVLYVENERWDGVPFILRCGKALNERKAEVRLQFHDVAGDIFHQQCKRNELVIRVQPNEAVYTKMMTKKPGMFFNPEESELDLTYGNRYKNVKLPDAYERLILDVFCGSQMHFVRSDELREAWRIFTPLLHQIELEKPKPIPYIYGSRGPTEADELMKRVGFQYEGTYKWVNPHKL
T5 sequence (P11413 2-515 R459L limits assumed): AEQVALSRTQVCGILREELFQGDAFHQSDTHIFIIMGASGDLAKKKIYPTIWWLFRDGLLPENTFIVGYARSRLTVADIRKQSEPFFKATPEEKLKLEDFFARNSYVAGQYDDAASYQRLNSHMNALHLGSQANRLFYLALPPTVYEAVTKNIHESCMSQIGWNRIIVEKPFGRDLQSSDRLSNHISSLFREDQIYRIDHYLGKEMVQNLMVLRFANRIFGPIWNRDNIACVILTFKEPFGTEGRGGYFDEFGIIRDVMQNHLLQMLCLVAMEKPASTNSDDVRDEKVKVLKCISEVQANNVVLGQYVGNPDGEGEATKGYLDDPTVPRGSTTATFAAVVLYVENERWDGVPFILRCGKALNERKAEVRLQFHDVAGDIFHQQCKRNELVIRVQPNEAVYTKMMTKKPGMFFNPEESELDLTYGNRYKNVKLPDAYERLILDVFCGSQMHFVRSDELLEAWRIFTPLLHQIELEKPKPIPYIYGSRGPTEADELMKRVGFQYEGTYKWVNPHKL
T2 sequence (P11413 whole entry V68M/N126D): as the sequence (P11413 whole entry) above, with V68M, N126D counted along it
T4 sequence (P11413 whole entry S188F): as the sequence (P11413 whole entry) above, with S188F counted along it
T3 sequence (P11413 whole entry R463H): as the sequence (P11413 whole entry) above, with R463H counted along it

Take `SCCNCCc1c[nH]c2ccccc12` [AG1, 2-[2-(1H-indol-3-yl)ethylamino]ethanethiol]: the “increase of WT G6PD activity over basal activity” value in assay [1] is given as “about 20%”. The dimerization of variant entry in assay [2], in assay [3] and in assay [4] was “promoted their dimerization” each time. Also, the “enhancement of enzymatic activity in lymphocyte lysates” value in assay [5] was determined as 78%. Moreover, in assay [6], the ROS levels result is “reduced”.
